These results are taken from patent US11001891B2, “Methods for treating Parkinson's disease” (Berg LLC, priority 2016, dated 2021).

Assay type in all cases: cell-based, human
In one series the test system is PIG3. The series is described as follows: PIG3 expression in patient-specific iPSCs after neurotoxin treatment. As to conditions: rotenone 0-1,000 nm or 6-OHDA 0.5-10 μM, 48 hours. The procedure:
(§1) For the experiment, patient-specific iPSCs were prepared by reprogramming primary dermal fibroblasts harvested from the upper arm of PD+ and unaffected donors using a non-integrating, self-replicating polycistronic RNA construct containing the reprogramming factors OCT4, SOX2, KLF4 and GLIS1 (Millipore, Simplicon™) according to published protocols. […] Following the treatment, the amount of PIG3 protein in the cells and cell viability were assessed.

The test system of a further series is LRRK2-PD neurons. As to conditions: iPSC-derived LRRK2-PD neurons, increasing concentrations of neurotoxin. The procedure: IPSCs were prepared from LRRK2-PD fibroblasts and then differentiated towards excitatory cortical neurons as described in the above examples and following published protocols (e.g., Shi et al., Nat. Neurosci. 2012, 15(3):10.1038; Chamber et al. Nat. Biotechnology, 2009, 27:275-280, the entire contents of which are incorporated herein by reference).

Series [1] has as its system SH-SY5Y cells. The experiment in a line: PIG3 protein, cleaved PARP and cell death in SH-SY5Y cells treated with rotenone. The following applies: rotenone 0, 50, 100 and 500 nm, 48 hours, immunoblot. The procedure: The purpose of this experiment was to evaluate the expression of PIG3 and cell viability in an in vitro chemical model of Parkinson's Disease.
Following the treatment, the amount of PIG3 protein in the cells and the extent of SH-SY5Y cell death were assessed. Cells treated with etoposide, which is known to induce apoptosis, were used as a positive control. Apoptosis in the treated cells was assessed by measuring the amount of cleaved poly(ADP-ribose) polymerase
In general terms: Immunoblotting shows a protein as a band on a membrane.

The subject of series [2] is SH-SY5Y cells. The series is described as follows: Cell death in SH-SY5Y cells treated with rotenone or 6-OHDA (in vitro chemical model of Parkinson's Disease). As to conditions: 48 hours rotenone or 6-OHDA in the presence vs absence of inhibitor. The source says: The purpose of this experiment was to test the effect of inhibiting the expression of PIG3 in an in vitro chemical model of Parkinson's Disease. For this experiment, an siRNA capable of inhibiting the expression of PIG3 (PIG3 siRNA) was synthesized and tested in SH-SY5Y cells against a non-targeting […] (NTC).
(§2) The purpose of this experiment was to test the effect of inhibiting the p38 MAPK activity on cell death and the expression of PIG3 in in vitro chemical model of Parkinson's Disease. […] SH-SY5Y cell death and PIG3 mRNA expression were assessed following treatment.
(§3) The purpose of this experiment was to test the effect of inhibiting LRRK2 activity on cell death and the expression of PIG3 in in vitro chemical model of Parkinson's Disease. […] SH-SY5Y cell death and PIG3 mRNA expression were assessed following treatment.

Another series has as its system PIG3 mRNA. The experiment in a line: PIG3 mRNA expression in SH-SY5Y cells treated with rotenone or 6-OHDA in presence of kinase inhibitor. As to conditions: 48 hours rotenone or 6-OHDA in the presence vs absence of inhibitor. The protocol:
as §2, §3

Another series has as its system PIG3 protein. The experiment in a line: Time course of PIG3 protein in SH-SY5Y cells after 6-OHDA (immunoblot). As to conditions: 50 nm 6-OHDA, normalized to actin. The protocol:
The purpose of this experiment was to access the effect of overexpression of PIG3 on cell viability and reactive oxygen species (ROS) production. To this end, SH-SY5Y cells stably overexpressing the PIG3 open reading frame (PIG3 ORF) were created and characterized by determining their viability, ROS burden and the amount of PIG3 protein produced in response to treatment with 50 nM 6-OHDA. Cell viability was measured relative to the empty vector control, pLOC (CTRL). ROS burden was estimated using DCFDA fluorescence measured by flow cytometry; and the amount of PIG3 protein was measured by immunoblotting and normalizing the densitometry of immunoreactivity to the amount of actin as a loading control.

Series [3] concerns patient-specific induced pluripotent stem cells (iPSCs). As to conditions: rotenone 0-1,000 nm or 6-OHDA 0.5-10 μM, 48 hours. The procedure: as §1
The test system of series [4] is SH-SY5Y cells. The series is described as follows: PIG3 protein, cleaved PARP and cell death in SH-SY5Y cells treated with 6-OHDA. The following applies: 6-OHDA 0, 50 and 100 μm, 48 hours. The procedure: This experiment was similar to the experiment described in Example 1, except that the in vitro chemical model of Parkinson's Disease involved treatment of SH-SY5Y cells with oxidopamine, also known as 6-hydroxydopamine (6-OHDA) or 2,4,5-trihydroxyphenethylamine 6-OHDA is known to have a selective adverse effect on dopaminergic and noradrenergic neurons. The structure of 6-OHDA is shown below:
For the experiment, SH-SY5Y cells were treated with 6-OHDA at a concentration of 0, 50 and 100 μm for 48 hours. Following the treatment, the amount of PIG3 protein in the cells and the extent of SH-SY5Y cell death were assessed. Cells treated with etoposide were used as a positive control. Apoptosis in the treated cells was assessed by measuring the amount of cleaved poly(ADP-ribose) polymerase (PARP).

Regarding `C=C(C)[C@H]1Cc2c(ccc3c2O[C@@H]2COc4cc(OC)c(OC)cc4[C@@H]2C3=O)O1` [rotenone], the PIG3 expression result in the series on PIG3 is “increased PIG3 expression”. The PIG3 protein result with LRRK2-PD neurons was “further increases”. For the same compound, the “amount of PIG3 protein” value in the series on SH-SY5Y cells [1] is given as “increased as a function of increasing concentration of rotenone”.

As for `COc1cc(C(=O)N2CCC(N3CCN(C)CC3)CC2)ccc1Nc1ncc2c(n1)N(C)c1ccccc1C(=O)N2C` [LRRK2-IN-1], the cell death result in the series on SH-SY5Y cells [2] is “decreased cell death”. The “PIG3 mRNA expression” value in the series with PIG3 mRNA is on record as “decreased PIG3 mRNA expression”.

As to `C[S+]([O-])c1ccc(-c2nc(-c3ccncc3)c(-c3ccc(F)cc3)[nH]2)cc1` (centres unmarked) [SB203580], the cell death result in the series on SH-SY5Y cells [2] was “decreased cell death”. In addition, in the series with PIG3 mRNA, the “PIG3 mRNA expression” value is “decreased PIG3 mRNA expression”.

As for `NCCc1cc(O)c(O)cc1O` [6-OHDA, 2,4,5-trihydroxyphenethylamine], the PIG3 expression entry in the series with PIG3 is on record as “increased PIG3 expression”. Further, the “relative amounts of PIG3 protein at different times after treatment” value in the series with PIG3 protein is “time-dependent accumulation of PIG3 protein”. In the series with LRRK2-PD neurons, the PIG3 protein result is reported as “further increases” and the “cleaved PARP expression” value is “further increases”. The iPSC viability result in series [3] is recorded as “decreased viability”. Moreover, the “apoptosis (cleaved PARP) / cell death” value in the series on SH-SY5Y cells [4] is recorded as 6-OHDA-induced apoptosis. The “amount of PIG3 protein” value with SH-SY5Y cells [4] (immunoblot) is reported as “increased as a function of increasing concentration of 6-OHDA”.
